Assays:
NCI-H2122 = experiment: cells; assay type: functional, cell-based, Homo sapiens; conditions: Homo sapiens, NCI-H2122
Description: SANGER: Inhibition of human NCI-H2122 cell growth in a cell viability assay.

HT-1376 = experiment: cells; assay type: functional, cell-based, Homo sapiens; conditions: Homo sapiens, HT-1376
Description: SANGER: Inhibition of human HT-1376 cell growth in a cell viability assay.

SK-MES-1 = experiment: cells; assay type: functional, cell-based, Homo sapiens; conditions: Homo sapiens, SK-MES-1;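 note: growth inhibition of human SK-MES-1 cells, read out with a cell viability assay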
Description: SANGER: Inhibition of human SK-MES-1 cell growth in a cell viability assay.

NCI-H1694 = experiment: cells; assay type: functional, cell-based, Homo sapiens; conditions: Homo sapiens, NCI-H1694;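 note: cell viability assay measuring inhibition of growth in human NCI-H1694 cells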
Description: SANGER: Inhibition of human NCI-H1694 cell growth in a cell viability assay.

SW1463 = experiment: cells; assay type: functional, cell-based, Homo sapiens; conditions: Homo sapiens, SW1463;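 note: growth inhibition of SW1463 cells, determined with a cell viability assay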
Description: SANGER: Inhibition of human SW1463 cell growth in a cell viability assay.

BHT-101 = experiment: cells; assay type: functional, cell-based, Homo sapiens; conditions: Homo sapiens, BHT-101
Description: SANGER: Inhibition of human BHT-101 cell growth in a cell viability assay.

AN3-CA = experiment: cells; assay type: functional, cell-based, Homo sapiens; conditions: Homo sapiens, AN3-CA;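 note: growth inhibition of human AN3-CA cells measured by a cell viability assay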
Description: SANGER: Inhibition of human AN3-CA cell growth in a cell viability assay.

SAOS-2 = experiment: cells; assay type: functional, cell-based, Homo sapiens; conditions: Homo sapiens, SAOS-2;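 note: growth inhibition of human Saos-2 cells determined by a cell viability assay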
Description: SANGER: Inhibition of human Saos-2 cell growth in a cell viability assay.

CPC-N = experiment: cells; assay type: functional, cell-based, Homo sapiens; conditions: Homo sapiens, CPC-N;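 note: growth inhibition of CPC-N cells, with a cell viability assay as the readout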
Description: SANGER: Inhibition of human CPC-N cell growth in a cell viability assay.

CP50-MEL-B = experiment: cells; assay type: functional, cell-based, Homo sapiens; conditions: Homo sapiens, CP50-MEL-B;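 note: growth inhibition of the human cell line, measured with a cell viability read-out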
Description: SANGER: Inhibition of human CP50-MEL-B cell growth in a cell viability assay.

KYSE-150 cell line = experiment: cells; assay type: functional, cell-based, Homo sapiens; conditions: Homo sapiens, KYSE-150;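 note: growth inhibition of human KYSE-150 cells, read out with a cell viability assay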
Description: SANGER: Inhibition of human KYSE-150 cell growth in a cell viability assay.

BFTC-905 = experiment: cells; assay type: functional, cell-based, Homo sapiens; conditions: Homo sapiens, BFTC-905
Description: SANGER: Inhibition of human BFTC-905 cell growth in a cell viability assay.

KP-N-YN = experiment: cells; assay type: functional, cell-based, Homo sapiens; conditions: Homo sapiens, KP-N-YN;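 note: growth inhibition of KP-N-YN cells, read out with a cell viability assay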
Description: SANGER: Inhibition of human KP-N-YN cell growth in a cell viability assay.

HT55 = experiment: cells; assay type: functional, cell-based, Homo sapiens; conditions: Homo sapiens, HT55;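 note: cell viability readout measuring growth inhibition of human HT55 cells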
Description: SANGER: Inhibition of human HT55 cell growth in a cell viability assay.

EB2 = experiment: cells; assay type: functional, cell-based, Homo sapiens; conditions: Homo sapiens, EB2;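 note: growth inhibition of EB2 cells, read out with a cell viability assay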
Description: SANGER: Inhibition of human EB2 cell growth in a cell viability assay.

ECC4 = experiment: cells; assay type: functional, cell-based, Homo sapiens; conditions: Homo sapiens, ECC4;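 note: growth inhibition of ECC4 cells, read out with a cell viability assay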
Description: SANGER: Inhibition of human ECC4 cell growth in a cell viability assay.

HCT-116 = experiment: cells; assay type: functional, cell-based, Homo sapiens; conditions: Homo sapiens, HCT-116
Description: SANGER: Inhibition of human HCT-116 cell growth in a cell viability assay.

HOP-92 = experiment: cells; assay type: functional, cell-based, Homo sapiens; conditions: Homo sapiens, HOP-92;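 note: cell viability readout, with IC50 reflecting inhibition of HOP-92 cell growth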
Description: SANGER: Inhibition of human HOP-92 cell growth in a cell viability assay.

HCC1806 = experiment: cells; assay type: functional, cell-based, Homo sapiens; conditions: Homo sapiens, HCC1806;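 note: growth inhibition of the cancer cell line, determined with a cell viability assay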
Description: SANGER: Inhibition of human HCC1806 cell growth in a cell viability assay.

Daudi = experiment: cells; assay type: functional, cell-based, Homo sapiens; conditions: Homo sapiens, Daudi
Description: SANGER: Inhibition of human Daudi cell growth in a cell viability assay.

RVH-421 = experiment: cells; assay type: functional, cell-based, Homo sapiens; conditions: Homo sapiens, RVH-421
Description: SANGER: Inhibition of human RVH-421 cell growth in a cell viability assay.

PFSK-1 = experiment: cells; assay type: functional, cell-based, Homo sapiens; conditions: Homo sapiens, PFSK-1;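 note: cell viability assay measuring how strongly compounds suppress growth of human PFSK-1 cells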
Description: SANGER: Inhibition of human PFSK-1 cell growth in a cell viability assay.

HCT-15 = experiment: cells; assay type: functional, cell-based, Homo sapiens; conditions: Homo sapiens, HCT-15;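 note: cell viability readout, IC50 reflecting suppression of HCT-15 cell growth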
Description: SANGER: Inhibition of human HCT-15 cell growth in a cell viability assay.

YKG-1 = experiment: cells; assay type: functional, cell-based, Homo sapiens; conditions: Homo sapiens, YKG-1
Description: SANGER: Inhibition of human YKG-1 cell growth in a cell viability assay.

PA-1 = experiment: cells; assay type: functional, cell-based, Homo sapiens; conditions: Homo sapiens, PA-1;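 note: IC50 for suppression of PA-1 cell proliferation, determined with a cell viability read-out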
Description: SANGER: Inhibition of human PA-1 cell growth in a cell viability assay.

EHEB = experiment: cells; assay type: functional, cell-based, Homo sapiens; conditions: Homo sapiens, EHEB
Description: SANGER: Inhibition of human EHEB cell growth in a cell viability assay.

CAL-54 = experiment: cells; assay type: functional, cell-based, Homo sapiens; conditions: Homo sapiens, CAL-54;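 note: growth inhibition of CAL-54 cells, read out by a viability measurement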
Description: SANGER: Inhibition of human CAL-54 cell growth in a cell viability assay.

SW1710 = experiment: cells; assay type: functional, cell-based, Homo sapiens; conditions: Homo sapiens, SW1710;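 note: growth inhibition of SW1710 cells, determined with a cell viability assay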
Description: SANGER: Inhibition of human SW1710 cell growth in a cell viability assay.

RPMI 8402 = experiment: SANGER: Inhibition of human RPMI-8402 cell growth in a cell viability assay.; assay type: functional, cell-based; conditions: Homo sapiens, RPMI 8402; read-out: IC50
JEG-3 = experiment: cells; assay type: functional, cell-based, Homo sapiens; conditions: Homo sapiens, JEG-3;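 note: growth inhibition of human JEG-3 cells, read out with a cell viability assay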
Description: SANGER: Inhibition of human JEG-3 cell growth in a cell viability assay.

SF-295 = experiment: cells; assay type: functional, cell-based, Homo sapiens; conditions: Homo sapiens, SF-295;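 note: growth inhibition of SF-295 cells, read out with a cell viability assay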
Description: SANGER: Inhibition of human SF295 cell growth in a cell viability assay.

P31-FUJ = experiment: cells; assay type: functional, cell-based, Homo sapiens; conditions: Homo sapiens, P31-FUJ;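 note: growth inhibition of P31-FUJ cells, read out with a viability assay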
Description: SANGER: Inhibition of human P31-FUJ cell growth in a cell viability assay.

SUP-T1 = experiment: cells; assay type: functional, cell-based, Homo sapiens; conditions: Homo sapiens, SUP-T1;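 note: growth inhibition of human SUP-T1 cells, read out as cell viability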
Description: SANGER: Inhibition of human SUP-T1 cell growth in a cell viability assay.

ESS-1 = experiment: cells; assay type: functional, cell-based, Homo sapiens; conditions: Homo sapiens, ESS-1;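 note: growth inhibition of human ESS-1 cells, read out by a cell viability assay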
Description: SANGER: Inhibition of human ESS-1 cell growth in a cell viability assay.

SNU-449 = experiment: cells; assay type: functional, cell-based, Homo sapiens; conditions: Homo sapiens, SNU-449
Description: SANGER: Inhibition of human SNU-449 cell growth in a cell viability assay.

NCI-H1963 = experiment: cells; assay type: functional, cell-based, Homo sapiens; conditions: Homo sapiens, NCI-H1963;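 note: cell growth inhibition of the human line, determined with a cell viability assay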
Description: SANGER: Inhibition of human NCI-H1963 cell growth in a cell viability assay.

UMC-11 = experiment: cells; assay type: functional, cell-based, Homo sapiens; conditions: Homo sapiens, UMC-11;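 note: growth inhibition of UMC-11 cells, read out with a cell viability assay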
Description: SANGER: Inhibition of human UMC-11 cell growth in a cell viability assay.

FTC-133 = experiment: cells; assay type: functional, cell-based, Homo sapiens; conditions: Homo sapiens, FTC-133
NCI-H1993 = experiment: cells; assay type: functional, cell-based, Homo sapiens; conditions: Homo sapiens, NCI-H1993;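 note: growth inhibition of the cancer cell line, assessed with a cell viability assay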
Description: SANGER: Inhibition of human NCI-H1993 cell growth in a cell viability assay.

IMR-5 = experiment: cells; assay type: functional, cell-based, Homo sapiens; conditions: Homo sapiens, IMR-5;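 note: growth inhibition of human IMR-5 cells, read out with a cell viability assay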
Description: SANGER: Inhibition of human IMR-5 cell growth in a cell viability assay.

NCI-H2227 = experiment: cells; assay type: functional, cell-based, Homo sapiens; conditions: Homo sapiens, NCI-H2227
Description: SANGER: Inhibition of human NCI-H2227 cell growth in a cell viability assay.

MG-63 = experiment: cells; assay type: functional, cell-based, Homo sapiens; conditions: Homo sapiens, MG-63;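 note: growth inhibition of human MG-63 cells, read out with a cell viability assay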
Description: SANGER: Inhibition of human MG-63 cell growth in a cell viability assay.

CAL-51 = experiment: cells; assay type: functional, cell-based, Homo sapiens; conditions: Homo sapiens, CAL-51;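 note: human CAL-51 cell line, growth inhibition read out via a cell viability assay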
Description: SANGER: Inhibition of human CAL-51 cell growth in a cell viability assay.

TE-441-T = experiment: cells; assay type: functional, cell-based, Homo sapiens; conditions: Homo sapiens, TE-441-T
Description: SANGER: Inhibition of human TE-441-T cell growth in a cell viability assay.

YT = experiment: cells; assay type: functional, cell-based, Homo sapiens; conditions: Homo sapiens, YT
Description: SANGER: Inhibition of human YT cell growth in a cell viability assay.

SMILES: CCC/C=C/C=C/C(=O)O[C@H]1/C(=C/C(=O)OC)C[C@H]2C[C@H]([C@@H](C)O)OC(=O)C[C@H](O)C[C@@H]3C[C@H](OC(C)=O)C(C)(C)[C@](O)(C[C@@H]4C/C(=C/C(=O)OC)C[C@H](/C=C/C(C)(C)[C@]1(O)O2)O4)O3 [BRYOSTATIN 1]
- IC50 (NCI-H2122): > 8 nM
- IC50 (HT-1376): > 8 nM
- IC50 (SK-MES-1): > 8 nM
- IC50 (NCI-H1694): > 8 nM
- IC50 (SW1463): > 8 nM
- IC50 (BHT-101): > 8 nM
- IC50 (AN3-CA): > 8 nM
- IC50 (SAOS-2): > 8 nM
- IC50 (CPC-N): > 8 nM
- IC50 (CP50-MEL-B): > 8 nM
- IC50 (KYSE-150 cell line): > 8 nM
- IC50 (BFTC-905): > 8 nM
- IC50 (KP-N-YN): > 8 nM
- IC50 (HT55): > 8 nM
- IC50 (EB2): > 8 nM
- IC50 (ECC4): > 8 nM
- IC50 (HCT-116): > 8 nM
- IC50 (HOP-92): > 8 nM
- IC50 (HCC1806): > 8 nM
- IC50 (Daudi): > 8 nM
- IC50 (RVH-421): > 8 nM
- IC50 (PFSK-1): > 8 nM
- IC50 (HCT-15): > 8 nM
- IC50 (YKG-1): 4.13 nM
- IC50 (PA-1): > 8 nM
- IC50 (EHEB): > 8 nM
- IC50 (CAL-54): > 8 nM
- IC50 (SW1710): > 8 nM
- IC50 (RPMI 8402): > 8 nM
- IC50 (JEG-3): > 8 nM
- IC50 (SF-295): > 8 nM
- IC50 (P31-FUJ): > 8 nM
- IC50 (SUP-T1): > 8 nM
- IC50 (ESS-1): > 8 nM
- IC50 (SNU-449): > 8 nM
- IC50 (NCI-H1963): > 8 nM
- IC50 (UMC-11): > 8 nM
- IC50 (FTC-133): > 8 nM
- IC50 (NCI-H1993): > 8 nM
- IC50 (IMR-5): > 8 nM
- IC50 (NCI-H2227): > 8 nM
- IC50 (MG-63): > 8 nM
- IC50 (CAL-51): > 8 nM
- IC50 (TE-441-T): > 8 nM
- IC50 (YT): > 8 nM

Reference: ChEMBL document CHEMBL1201861, “Genomics of Drug Sensitity in Cancer screening data, Wellcome Trust Sanger Institute”
